Test results: ChEMBL document CHEMBL1142372, “Design, synthesis, and structure-activity relationship studies of 4-quinolinyl- and 9-acrydinylhydrazones as potent antimalarial agents” (J Med Chem, 2008)
Activity calls are given as the source filed them. No cut-off for these calls is given here.

How the values were obtained:
[1] = tested on: Plasmodium falciparum; assay: Antiplasmodial activity against chloroquine-sensitive Plasmodium falciparum D10 by [3H]hypoxanthine incorporation; type: functional, organism-based
[2] = tested on: Plasmodium falciparum; assay: Antiplasmodial activity against chloroquine-sensitive Plasmodium falciparum 3D7 by [3H]hypoxanthine incorporation; type: functional, organism-based
[3] = tested on: Plasmodium falciparum; assay: Antiplasmodial activity against chloroquine-resistant Plasmodium falciparum K1 by [3H]hypoxanthine incorporation; type: functional, organism-based
[4] = tested on: Plasmodium falciparum; assay: Antiplasmodial activity against chloroquine-resistant Plasmodium falciparum W2 by [3H]hypoxanthine incorporation; type: functional, organism-based
[5] = target: T1, Histidine-rich protein PFHRP-II (Plasmodium falciparum) (UniProt P05227); assay: Inhibition of beta-hematin formation by BHIA; type: functional
T1 sequence (whole entry): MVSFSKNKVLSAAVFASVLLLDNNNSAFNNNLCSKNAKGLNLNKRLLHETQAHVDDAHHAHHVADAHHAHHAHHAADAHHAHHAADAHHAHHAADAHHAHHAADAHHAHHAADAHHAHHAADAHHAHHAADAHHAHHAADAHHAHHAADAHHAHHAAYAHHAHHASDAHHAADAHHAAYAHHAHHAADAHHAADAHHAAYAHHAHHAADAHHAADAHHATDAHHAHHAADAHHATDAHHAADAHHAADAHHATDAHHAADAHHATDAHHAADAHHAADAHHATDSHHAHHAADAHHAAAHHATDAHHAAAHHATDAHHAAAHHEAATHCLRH

[6] = tested on: KB; assay: Cytotoxicity against human KB cells; type: functional; conditions: read-out: ED50 (the source's name)
[7] = tested on: Plasmodium berghei; assay: Antimalarial activity against Plasmodium berghei ANKA infected BALB/c mice (Mus musculus) as reduced parasitaemia at 30 mg/kg intraperitoneal dose after 4 days; type: functional; parameters: scale not given: the % may be the effect or the level left
[8] = tested on: Mus musculus; assay: Survival of Plasmodium Berghei ANKA infected BALB/c mice (Mus musculus) at 30 mg/kg, intraperitoneally; type: functional, organism-based; parameters: dose 30 mg/kg
[9] = tested on: Mus musculus; assay: Survival of Plasmodium Berghei ANKA infected BALB/c mice (Mus musculus) at 10 mg/kg, intraperitoneally; type: functional, organism-based; parameters: dose 10 mg/kg
[10] = tested on: Plasmodium berghei; assay: Reduced parasitemia in Plasmodium berghei ANKA infected BALB/c mice (Mus musculus) at 10 mg/kg intraperitoneal dose after 4 days; type: functional; parameters: scale not given: the % may be the effect or the level left

Structure (SMILES) | IC50 [1] [nM] | IC50 [2] [nM] | IC50 [3] [nM] | IC50 [4] [nM] | Activity [5] | EC50 [6] [nM] | Activity [7] [%] | Activity [8] | Activity [9] | Activity [10] [%]
COc1ccc2nccc(N/N=C/c3ccc(N4CCCC4)cc3)c2c1 | 115 | 404 | 462 | 185 | – | – | – | – | – | –
CCN(CC)c1ccc(/C=N/Nc2ccnc3ccc(OC)cc23)cc1 | 142 | 22.9 | 172 | 166 | – | – | – | – | – | –
CN(C)c1ccc(/C=N/Nc2ccnc3cc(Cl)ccc23)cc1 | 325 | 308 | 1140 | 383 | – | – | – | – | – | –
Clc1ccc2c(N/N=C/c3cccnc3)ccnc2c1 | 607 | – | – | 814 | – | – | – | – | – | –
COc1ccc2nccc(N/N=C/c3ccc4c(c3)OCO4)c2c1 | 132 | – | – | 197 | – | – | – | – | – | –
FC(F)(F)c1ccc(-c2n[nH]cc2/C=N/Nc2ccnc3cc(Cl)ccc23)cc1 | 186 | 5 | 39.6 | 258 | Dose-dependent effect | 1200 | – | – | – | –
Clc1ccc2c(N/N=C/c3ccc(CN4CCCC4)cc3)ccnc2c1 | – | – | – | – | Dose-dependent effect | 19500 | 83 | Active | – | –
CCN(CC)c1ccc(/C=N/Nc2c3c(nc4ccccc24)CCCC3)cc1 | 986 | 1080 | – | 1470 | – | – | – | – | – | –
Cc1cccc(/C=N/Nc2ccnc3cc(Cl)ccc23)n1 | > 3000 | – | – | 760 | – | – | – | – | – | –
Clc1ccc2c(N/N=C/c3ccc[nH]3)ccnc2c1 | 210 | 25.8 | 53.1 | 256 | – | 4800 | – | – | – | –
Cn1ccnc1/C=N/Nc1ccnc2cc(Cl)ccc12 | 197 | 61.5 | 270 | 86.9 | – | 17100 | – | – | – | –
COc1ccc2c(N/N=C/c3ccc4ccccc4n3)ccnc2c1 | 108 | – | 213 | 140 | – | – | – | – | – | –
O=C(NNc1ccnc2cc(Cl)ccc12)c1ncc[nH]1 | 6470 | 5460 | > 10000 | > 10000 | – | – | – | – | – | –
CCN(CC)c1ccc(/C=N/Nc2ccnc3cc(Cl)ccc23)cc1 | 175 | 300 | – | 250 | – | – | – | – | – | –
Clc1ccc2c(N/N=C/c3cccs3)ccnc2c1 | 504 | 167 | 577 | 855 | – | 10400 | – | – | – | –
Cn1cncc1/C=N/Nc1ccnc2cc(Cl)ccc12 | 174 | 48.9 | 385 | 249 | – | 73800 | – | – | – | –
O=C(NNc1ccnc2cc(Cl)ccc12)c1c[nH]cn1 | > 10000 | 8830 | > 10000 | > 10000 | – | – | – | – | – | –
COc1ccc(/C=N/Nc2c3c(nc4cc(Cl)ccc24)CCCC3)cc1 | 760 | 930 | 2640 | 1330 | – | – | – | – | – | –
COc1ccc(/C=N/Nc2c3c(nc4ccccc24)CCCC3)cc1 | 942 | – | – | 2360 | – | – | – | – | – | –
Clc1ccc2c(N/N=C/c3ccncc3)ccnc2c1 | 570 | – | – | 627 | – | – | – | – | – | –
C(=N\Nc1c2c(nc3ccccc13)CCCC2)/c1ccc2c(c1)OCO2 | 618 | – | – | 923 | – | – | – | – | – | –
COc1ccc2nccc(N/N=C/c3ccc(CN4CCCC4)cc3)c2c1 | 24.8 | 16.7 | 86.1 | 99.4 | – | – | – | – | – | –
COc1ccc2nc3cc(Cl)ccc3c(N/N=C/c3ccc(CN4CCCC4)cc3)c2c1 | – | – | – | – | – | – | 19 | Active | – | –
Cc1ccc(S(=O)(=O)NNc2ccnc3cc(Cl)ccc23)cc1 | 5840 | 3020 | 8460 | 5060 | – | – | – | – | – | –

Structure (SMILES) | IC50 [1] [nM] | IC50 [2] [nM] | IC50 [3] [nM] | IC50 [4] [nM] | Activity [5] | EC50 [6] [nM] | Activity [7] [%] | Activity [8] | Activity [9] | Activity [10] [%]
COc1ccc2nc3cc(Cl)ccc3c(N/N=C/c3ncc[nH]3)c2c1 | – | – | – | – | – | 5100 | 40 | Active | – | –
Cc1noc(C)c1/C=N/Nc1ccnc2cc(Cl)ccc12 | 347 | 125 | 2130 | 509 | – | 171000 | – | – | – | –
O=S(=O)(NNc1ccnc2cc(Cl)ccc12)c1cccc2ccccc12 | 4270 | 2160 | 599 | 2530 | – | – | – | – | – | –
C(=N\Nc1ccnc2cc3c(cc12)OCO3)/c1ccc(CN2CCCC2)cc1 | 35.6 | 26.7 | 58 | 46.5 | – | – | – | – | – | –
CCN(CC)CCCC(C)Nc1ccnc2cc(Cl)ccc12 (configuration not stated) [CHLOROQUINE] | – | – | – | – | Dose-dependent effect | 260000 | – | – | Active | 98
Oc1cc(/C=N/Nc2ccnc3cc(Cl)ccc23)ccc1CN1CCCC1 | 21.4 | 0.9 | 39.6 | 18.9 | – | 152000 | 71 | Active | – | –
COc1ccc2nc(C)cc(N/N=C/c3ccc4c(c3)OCO4)c2c1 | 132 | 507 | 149 | 184 | – | – | – | – | – | –
Cc1cccc(/C=N/Nc2cc(C)nc3cc(Cl)ccc23)n1 | 1160 | – | – | 1310 | – | – | – | – | – | –
COc1ccc2nccc(N/N=C/c3ccc4ccccc4n3)c2c1 | 73 | 125 | 159 | 96 | – | – | – | – | – | –
Clc1ccc2c(N/N=C/c3ncc[nH]3)ccnc2c1 | 65.2 | 5.9 | 31.6 | 23.7 | Dose-dependent effect | 19500 | – | – | – | –
CCN(CC)c1ccc(/C=N/Nc2ccnc3c(OC)cccc23)cc1 | 442 | 206 | 125 | 791 | – | – | – | – | – | –
COc1ccc(/C=N/Nc2cc(C)nc3ccc(OC)cc23)cc1 | 103 | 31.1 | 62.3 | 150 | – | – | – | – | – | –
Clc1ccc2c(N/N=C/c3ccc4c(c3)OCO4)ccnc2c1 | 184 | 400 | 30.7 | 203 | – | – | – | – | – | –
COc1cc2ccccc2cc1/C=N/Nc1ccnc2cc(Cl)ccc12 | 145 | 31.8 | 63.7 | 169 | – | – | – | – | – | –
Cc1cc(N/N=C/c2ccc3c(c2)OCO3)c2ccc(Cl)cc2n1 | 122 | – | – | 281 | – | – | – | – | – | –
COc1ccc(/C=N/Nc2ccnc3ccc(OC)cc23)cc1 | – | 65.1 | – | – | – | – | 38 | – | – | –
COc1ccc(/C=N/Nc2ccnc3c(OC)cccc23)cc1 | 715 | 326 | 769 | 903 | – | – | – | – | – | –
Clc1ccc2c(N/N=C/c3cnc[nH]3)ccnc2c1 | 453 | 152 | 626 | 140 | – | 29100 | – | – | – | –
CCOc1ccc2c(N/N=C/c3ccc(OC)cc3)cc(C)nc2c1 | 212 | 805 | 537 | 232 | – | – | – | – | – | –
Clc1ccc2c(N/N=C/c3ccc(N4CCCC4)cc3)ccnc2c1 | 189 | 855 | 427 | 190 | – | – | – | – | – | –
Clc1ccc2c(N/N=C/c3ccco3)ccnc2c1 | 949 | 169 | 824 | 1390 | Dose-dependent effect | 19900 | – | – | – | –
COc1cccc(/C=N/Nc2cc(C)nc3cc4c(cc23)OCO4)c1 | 197 | 4980 | – | 229 | – | – | – | – | – | –
COc1cccc2c(N/N=C/c3ccc4ccccc4n3)cc(C)nc12 | 404 | 789 | 117 | 324 | – | – | – | – | – | –
CCN(CC)Cc1ccc(/C=N/Nc2ccnc3cc(Cl)ccc23)cc1 | 48.3 | 2.7 | 27.2 | 57.7 | – | – | – | – | – | –
